Assays:
Test in all cases: relative viability (nuclei count vs DMSO), 5 days (fraction); higher = more cells survive
[1] = test system: SK-MES-1
Method in brief: (§1)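 Relative viability divides the nuclei count in treated wells by that in vehicle wells. Lung cancer cell lines were seeded in 1536-well plates, dosed by pin tool the next day, and fixed and stained after 5 days in one step with final 0.05% Triton X-100, 1% formaldehyde and 1 ug/ml Hoechst. Dosing was a single drug or a fixed anchor-drug dose plus five library-drug doses (not always all listed) in √10 steps, and values are medians of duplicate plates imaged at 4×.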

[2] = test system: COR-L 105
Method in brief: as §1

[3] = test system: H3255
Method in brief: as §1

[4] = test system: NCI-H1666
Method in brief: as §1

[5] = test system: EMC-BAC-2
Method in brief: as §1

[6] = test system: NCI-H520
Method in brief: as §1

[7] = test system: LOU-NH91
Method in brief: as §1

[8] = test system: NCI-H1563
Method in brief: as §1

[9] = test system: A-427
Method in brief: as §1

[10] = test system: LK-2
Method in brief: as §1

[11] = test system: EKVX
Method in brief: as §1

NC(=O)Nc1cc(-c2cccc(F)c2)sc1C(=O)N[C@H]1CCCNC1 [AZD7762] + Cc1nc(NC(=O)N2CCC[C@H]2C(N)=O)sc1-c1ccnc(C(C)(C)C(F)(F)F)c1 [Alpelisib] (partner 2 µM)
relative viability ([1]; first compound 0.01 µM): 0.968 | relative viability ([1]; first compound 0.03162 µM): 0.946 | relative viability ([1]; first compound 0.1 µM): 1.02 | relative viability ([1]; first compound 0.3162 µM): 1.09 | relative viability ([1]; first compound 1 µM): 0.591 | relative viability ([2]; first compound 0.01 µM): 1.2 | relative viability ([2]; first compound 0.03162 µM): 1.03 | relative viability ([2]; first compound 0.1 µM): 0.92 | relative viability ([2]; first compound 0.3162 µM): 0.847 | relative viability ([2]; first compound 1 µM): 0.461 | relative viability ([3]; first compound 0.01 µM): 0.727 | relative viability ([3]; first compound 0.03162 µM): 0.63 | relative viability ([3]; first compound 0.1 µM): 0.634 | relative viability ([3]; first compound 0.3162 µM): 0.705 | relative viability ([3]; first compound 1 µM): 0.357 | relative viability ([4]; first compound 0.01 µM): 1.12 | relative viability ([4]; first compound 0.03162 µM): 1.24 | relative viability ([4]; first compound 0.1 µM): 1.18 | relative viability ([4]; first compound 0.3162 µM): 1.02 | relative viability ([4]; first compound 1 µM): 0.75 | relative viability ([5]; first compound 0.01 µM): 0.82 | relative viability ([5]; first compound 0.03162 µM): 0.72 | relative viability ([5]; first compound 0.1 µM): 0.79 | relative viability ([5]; first compound 0.3162 µM): 0.762 | relative viability ([5]; first compound 1 µM): 0.797 | relative viability ([6]; first compound 0.01 µM): 1.05 | relative viability ([6]; first compound 0.03162 µM): 1.04 | relative viability ([6]; first compound 0.1 µM): 0.832 | relative viability ([6]; first compound 0.3162 µM): 0.635 | relative viability ([6]; first compound 1 µM): 0.371 | relative viability ([7]; first compound 0.01 µM): 0.731 | relative viability ([7]; first compound 0.03162 µM): 0.741 | relative viability ([7]; first compound 0.1 µM): 0.645 | relative viability ([7]; first compound 0.3162 µM): 0.612 | relative viability ([7]; first compound 1 µM): 0.478 | relative viability ([8]; first compound 0.01 µM): 1.01 | relative viability ([8]; first compound 0.03162 µM): 0.918 | relative viability ([8]; first compound 0.1 µM): 0.978 | relative viability ([8]; first compound 0.3162 µM): 0.943 | relative viability ([8]; first compound 1 µM): 0.76 | relative viability ([9]; first compound 0.01 µM): 1.07 | relative viability ([9]; first compound 0.03162 µM): 1.14 | relative viability ([9]; first compound 0.1 µM): 1.1 | relative viability ([9]; first compound 0.3162 µM): 1.1 | relative viability ([9]; first compound 1 µM): 0.864 | relative viability ([10]; first compound 0.01 µM): 1.21 | relative viability ([10]; first compound 0.03162 µM): 0.946 | relative viability ([10]; first compound 0.1 µM): 0.976 | relative viability ([10]; first compound 0.3162 µM): 0.838 | relative viability ([10]; first compound 1 µM): 0.618 | relative viability ([11]; first compound 0.01 µM): 0.846 | relative viability ([11]; first compound 0.03162 µM): 0.845

From the supplement of paper PMC10307832
